Data: patent publication US9718861B2 (Universitaet Leipzig, priority 2011, dated 2017)
Like-named read-outs stand apart in the source and are kept apart here. Where a SMILES comes first, the peptide text is derived from it. Where no end group is shown, it is not given here. [ ]: non-standard residue; d: D form. d1Nal = N[C@H](Cc1cccc2ccccc12)C(=O)O; Cha = N[C@@H](CC1CCCCC1)C(=O)O; Phg = N[C@H](C(=O)O)c1ccccc1; Nva = CCC[C@H](N)C(=O)O

Legend:
ghrelin receptor [1] = biological target: T1, ghrelin receptor (Homo sapiens, UniProt Q92847); assay: Inositol trisphosphate turnover assay in COS-7 cells transfected with the ghrelin receptor; format: cell-based; parameters: expressed in transfected cells; details: for Emax: COS-7; for Emax ± SEM: efficacy; for EC50: mean ± SEM of n experiments
Target sequence in this assay (Q92847 whole entry): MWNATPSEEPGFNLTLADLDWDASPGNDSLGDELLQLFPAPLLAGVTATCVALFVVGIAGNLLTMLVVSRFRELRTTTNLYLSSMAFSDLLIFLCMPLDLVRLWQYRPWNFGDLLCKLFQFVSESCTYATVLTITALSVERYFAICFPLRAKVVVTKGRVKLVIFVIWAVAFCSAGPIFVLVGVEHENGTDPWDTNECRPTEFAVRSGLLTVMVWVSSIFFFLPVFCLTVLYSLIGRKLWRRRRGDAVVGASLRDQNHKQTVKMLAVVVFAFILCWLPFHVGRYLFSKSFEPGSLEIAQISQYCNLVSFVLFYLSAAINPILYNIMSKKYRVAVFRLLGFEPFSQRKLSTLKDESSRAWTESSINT
Experimental: COS-7 cells were grown in a humidified atmosphere at 37° C. and 5% CO2 in Dulbecco's modified Eagle's medium with higher glucose supplemented with 10% (v/v) FCS and 1% (v/v) penicillin/streptomycin. COS-7 cells were seeded out in 24-well plates (80.000-100.000 cells/well) in DMEM with 10% FCS. […] Each well was treated with 0.3 μg DNA and 0.9 μl metafectene.
The day after transfection, or the day after seeding for stable cells, cells were incubated with myo-[2-^3H]-inositol (2 μCi/ml) for 18 h and washed with DMEM/LiCl. Stimulation was then carried out with seven to nine different peptide concentrations in DMEM containing 10 mM LiCl, for 2 h, in duplicates. Stimulation was stopped by aspirating the medium and subsequently, cells were lysed with 150 μl of 0.1M NaOH for 5 min at RT. 50 μl of 0.2M HCOOH were added and the solution was diluted using 1 ml dilution buffer. […] Obtained data was analyzed with GraphPad Prism 3.0 (GraphPad Software). Therefore, dpm values are assigned to the corresponding peptide concentrations. Non-linear regression was used to obtain sigmoidal curves. For better comparability, dpm values were normalized to the constitutive activity. Constitutive activity of 100% represents the basal activity, the activity of the receptor without the influence of peptides. Emax is the efficacy of the peptide and represents the difference between constitutive activity and activity at maximal effect of the peptide. EC50 is the peptide concentration at half-maximal effect.

ghrelin receptor [2] = biological target: T1, ghrelin receptor; details: background, cited from earlier work
Target sequence in this assay (Q92847 whole entry, species assumed): as the sequence (Q92847 whole entry) above

ghrelin receptor [3] = biological target: T1, ghrelin receptor; details: background; cited from earlier work
Target sequence in this assay (Q92847 whole entry, species assumed): as the sequence (Q92847 whole entry) above

rats = assay: ICV administration to rats, food intake; format: in vivo; details: 1 nmol/rat, n=6, vs vehicle 0.9% saline with DMSO
Source text: For in vivo studies, peptide 3 was delivered intracerebroventricularly. The rats were stereotaxically implanted with a stainless steel cannula (Holm Finmekanik AS, Copenhagen, Denmark) aimed at the right lateral ventricle 1 mm caudal and 1.5 mm lateral to bregma and 4 mm ventral to cranium externa. Rats were left to recover in the metabolic cages (MANI Feed Win, Ellegaard Systems) for adaptation for at least 5 days, only interrupted by daily handling and body weight measurements. With these cages we could accurately measure the food and water intake of rats for up to 48 hours. The powdered diet used eliminated food hoarding and spill. Cannula placement was confirmed by measuring the drinking response to angiotensin injection (100 nmol/rat). Administration of peptide was done with 1 nmol/rat (n=6). As a negative control, a vehicle solution of 0.9% saline with DMSO (n=7) was used.

[4] = inverse agonistic activity, read-out: efficacy (Emax)
[5] = inverse agonistic activity, difference to constitutive activity (Table 2)
[6] = inverse agonistic activity, analogs KxFwLL-NH2 (Table 2)
[7] = shift in efficacy compared to KwFwLL-NH2, inverse agonistic activity
[8] = shift in potency compared to KwFwLL-NH2, inverse agonistic activity
[9] = inverse agonistic activity, analogs K-(D-1-Nal)-xwLL-NH2 (Table 5)
[10] = shift of efficacy compared to K-(D-1-Nal)-FwLL-NH2, inverse agonistic activity
[11] = shift of potency compared to K-(D-1-Nal)-FwLL-NH2, inverse agonistic activity
[12] = agonistic activity, read-out: Emax
[13] = agonistic activity, ghrelin and analogs KwFxLL-NH2 (Table 3)
[14] = agonistic activity, difference to constitutive activity (Table 3)
[15] = shift in efficacy compared to ghrelin, agonistic activity
[16] = shift in potency compared to ghrelin, agonistic activity

## CC(C)C[C@H](NC(=O)[C@H](CC(C)C)NC(=O)[C@@H](Cc1c[nH]c2ccccc12)NC(=O)[C@H](Cc1ccccc1)NC(=O)[C@@H](Cc1c[nH]c2ccccc12)NC(=O)[C@@H](N)CCCCN)C(N)=O [Peptide 2, KwFwLL-NH2, reference compound]
Ghrelin receptor [1]; [4]
  Emax: 37%
Ghrelin receptor [1]; [5]
  Emax ± SEM: 37 ± 5 Δ %
Ghrelin receptor [1]; [6]
  EC50: 45.6 nM
Ghrelin receptor [1]; [7]
  x-fold (Emax): 1 x-fold
Ghrelin receptor [1]; [8]
  x-fold (EC50): 1 x-fold

## CC(C)C[C@H](NC(=O)[C@H](CC(C)C)NC(=O)[C@@H](Cc1csc2ccccc12)NC(=O)[C@H](Cc1ccccc1)NC(=O)[C@@H](Cc1cccc2ccccc12)NC(=O)[C@@H](N)CCCCN)C(N)=O [Peptide 19, K-(D-1-Nal)-F-(D-Bth)-LL-NH2]
Ghrelin receptor [1]; [4]
  Emax: 40%
Ghrelin receptor [1]; inverse agonistic activity, analogs KxFxLL-NH2 (Table 4)
  Emax ± SEM: 40 ± 2 Δ %

## CC(C)C[C@H](NC(=O)[C@H](CC(C)C)NC(=O)[C@@H](Cc1c[nH]c2ccccc12)NC(=O)[C@H](CC1CCCCC1)NC(=O)[C@@H](Cc1cccc2ccccc12)NC(=O)[C@@H](N)CCCCN)C(N)=O [Peptide 21, K-(D-1-Nal)-(Cha)-wLL-NH2] (H-K[d1Nal][Cha][dW]LL-NH2)
Ghrelin receptor [1]; [9]
  Emax ± SEM: 85 ± 3 Δ %
Ghrelin receptor [1]; [10]
  x-fold (Emax): 1.3 x-fold
Ghrelin receptor [1]; [11]
  x-fold (EC50): 28.5 x-fold

## fQwFwLL-NH2
Ghrelin receptor [2]
  decrease of affinity in comparison to full-length modified substance P: 5.3 fold
Ghrelin receptor [3]
  decrease of activity in comparison to full-length modified substance P: 1.6 fold

## CC(C)C[C@H](NC(=O)[C@H](CC(C)C)NC(=O)[C@@H](Cc1c[nH]c2ccccc12)NC(=O)[C@H](Cc1ccccc1)NC(=O)[C@@H](Cc1ccc(C(=O)c2ccccc2)cc1)NC(=O)[C@@H](N)CCCCN)C(N)=O [Peptide 7, K-(D-Bpa)-FwLL-NH2]
Ghrelin receptor [1]
  activity at the ghrelin receptor (in words): moderate activity
Ghrelin receptor [1]; [5]
  Emax ± SEM: 67 ± 7 Δ %
Ghrelin receptor [1]; [7]
  x-fold (Emax): 1.8 x-fold
Ghrelin receptor [1]; [8]
  x-fold (EC50): 3.70 x-fold

## CC(C)C[C@H](NC(=O)[C@H](CC(C)C)NC(=O)[C@H](NC(=O)[C@H](Cc1ccccc1)NC(=O)[C@@H](Cc1c[nH]c2ccccc12)NC(=O)[C@@H](N)CCCCN)C(c1ccccc1)c1ccccc1)C(N)=O [Peptide 16, KwF-(D-Dip)-LL-NH2]
Ghrelin receptor [1]
  activity at the ghrelin receptor (in words): no activity

## CC(C)C[C@H](NC(=O)[C@H](CC(C)C)NC(=O)[C@@H](Cc1c[nH]c2ccccc12)NC(=O)[C@@H](NC(=O)[C@@H](Cc1cccc2ccccc12)NC(=O)[C@@H](N)CCCCN)c1ccccc1)C(N)=O [Peptide 25, K-(D-1-Nal)-(L-Phg)-wLL-NH2] (H-K[d1Nal][Phg][dW]LL-NH2; N-terminus assumed)
Ghrelin receptor [1]; [11]
  x-fold (EC50): >290 x-fold

## CC(C)C[C@H](NC(=O)[C@H](CC(C)C)NC(=O)[C@@H](Cc1ccc(C(=O)c2ccccc2)cc1)NC(=O)[C@H](Cc1ccccc1)NC(=O)[C@@H](Cc1c[nH]c2ccccc12)NC(=O)[C@@H](N)CCCCN)C(N)=O [Peptide 15, KwF-(D-Bpa)-LL-NH2]
Ghrelin receptor [1]
  activity at the ghrelin receptor (in words): no activity

## CC(C)C[C@H](NC(=O)[C@H](CC(C)C)NC(=O)[C@@H](Cc1c[nH]c2ccccc12)NC(=O)[C@H](Cc1ccccc1)NC(=O)[C@@H](Cc1ccc2ccccc2c1)NC(=O)[C@@H](N)CCCCN)C(N)=O [Peptide 6, K-(D-2-Nal)-FwLL-NH2]
Ghrelin receptor [1]
  activity at the ghrelin receptor (in words): moderate activity
Ghrelin receptor [1]; [5]
  Emax ± SEM: 66 ± 4 Δ %
Ghrelin receptor [1]; [6]
  EC50: 161 nM
Ghrelin receptor [1]; [7]
  x-fold (Emax): 1.8 x-fold
Ghrelin receptor [1]; [8]
  x-fold (EC50): 3.54 x-fold

## CC(C)C[C@H](NC(=O)[C@H](CC(C)C)NC(=O)[C@@H](Cc1cccc2ccccc12)NC(=O)[C@H](Cc1ccccc1)NC(=O)[C@@H](Cc1cccc2ccccc12)NC(=O)[C@@H](N)CCCCN)C(N)=O [Peptide 18, K-(D-1-Nal)-F-(D-1-Nal)-LL-NH2]
Ghrelin receptor [1]
  activity at the ghrelin receptor (in words): totally suppressed activity

## CC(C)C[C@H](NC(=O)[C@H](CC(C)C)NC(=O)[C@@H](Cc1cccc2ccccc12)NC(=O)[C@H](Cc1ccccc1)NC(=O)[C@@H](Cc1c[nH]c2ccccc12)NC(=O)[C@@H](N)CCCCN)C(N)=O [Peptide 12, KwF-(D-1-Nal)-LL-NH2]
Ghrelin receptor [1]; [12]
  Emax: 54%
Ghrelin receptor [1]; [13]
  EC50: 17.9 nM
Ghrelin receptor [1]; [14]
  Emax ± SEM: 54 ± 10 Δ %
Ghrelin receptor [1]; [15]
  x-fold (Emax): 0.3 x-fold
Ghrelin receptor [1]; [16]
  x-fold (EC50): 12.8 x-fold

## CC(C)C[C@H](NC(=O)[C@H](CC(C)C)NC(=O)[C@@H](Cc1c[nH]c2ccccc12)NC(=O)[C@H](Cc1ccc(C(C)(C)C)cc1)NC(=O)[C@@H](Cc1cccc2ccccc12)NC(=O)[C@@H](N)CCCCN)C(N)=O [Peptide 22, K-(D-1-Nal)-(L-tBf)-wLL-NH2]
Ghrelin receptor [1]; [4]
  Emax: 84%
Ghrelin receptor [1]; [9]
  Emax ± SEM: 84 ± 3 Δ %
Ghrelin receptor [1]; [10]
  x-fold (Emax): 1.3 x-fold
Ghrelin receptor [1]; [11]
  x-fold (EC50): 36.5 x-fold

## CC(C)C[C@H](NC(=O)[C@H](CC(C)C)NC(=O)[C@@H](Cc1c[nH]c2ccccc12)NC(=O)[C@H](Cc1ccccc1)NC(=O)[C@H](NC(=O)[C@@H](N)CCCCN)C(c1ccccc1)c1ccccc1)C(N)=O [Peptide 5, K-(D-Dip)-FwLL-NH2]
Ghrelin receptor [1]; [4]
  Emax: > 80%
Ghrelin receptor [1]; [5]
  Emax ± SEM: 87 ± 2 Δ %
Ghrelin receptor [1]; inverse agonistic activity
  increase in activity compared with peptide 2 (KwFwLL-NH2): 3.5 fold
Ghrelin receptor [1]; [7]
  x-fold (Emax): 2.4 x-fold
Ghrelin receptor [1]; [8]
  x-fold (EC50): 0.29 x-fold

## CC(C)C[C@H](NC(=O)[C@H](CC(C)C)NC(=O)[C@@H](Cc1c[nH]c2ccccc12)NC(=O)[C@H](Cc1ccccc1)NC(=O)[C@@H](Cc1cccc2ccccc12)NC(=O)[C@@H](N)CCCCN)C(N)=O [Peptide 3, K-(D-1-Nal)-FwLL-NH2]
rats
  decrease of food intake compared to vehicle: ~5 fold

## CC(C)C[C@H](NC(=O)[C@H](CC(C)C)NC(=O)[C@@H](Cc1c[nH]c2ccccc12)NC(=O)[C@H](Cc1ccccc1)NC(=O)[C@@H](Cc1ccc(-c2ccccc2)cc1)NC(=O)[C@@H](N)CCCCN)C(N)=O [Peptide 8, K-(D-Bip)-FwLL-NH2]
Ghrelin receptor [1]
  activity at the ghrelin receptor (in words): moderate activity
Ghrelin receptor [1]; [4]
  Emax: > 80%
Ghrelin receptor [1]; [5]
  Emax ± SEM: 82 ± 0 Δ %
Ghrelin receptor [1]; [7]
  x-fold (Emax): 2.2 x-fold
Ghrelin receptor [1]; [8]
  x-fold (EC50): 4.03 x-fold

## CC(C)C[C@H](NC(=O)[C@H](CC(C)C)NC(=O)[C@@H](Cc1c[nH]c2ccccc12)NC(=O)[C@H](Cc1ccccc1)NC(=O)[C@@H](Cc1ccccc1)NC(=O)[C@@H](N)CCCCN)C(N)=O [Peptide 9, K-(D-Phe)-FwLL-NH2]
Ghrelin receptor [1]
  activity at the ghrelin receptor (in words): moderate activity
Ghrelin receptor [1]; [5]
  Emax ± SEM: 62 ± 4 Δ %
Ghrelin receptor [1]; [6]
  EC50: 241 nM
Ghrelin receptor [1]; [7]
  x-fold (Emax): 1.7 x-fold
Ghrelin receptor [1]; [8]
  x-fold (EC50): 5.28 x-fold

## CCC[C@H](NC(=O)[C@@H](Cc1cccc2ccccc12)NC(=O)[C@@H](N)CCCCN)C(=O)N[C@H](Cc1c[nH]c2ccccc12)C(=O)N[C@@H](CC(C)C)C(=O)N[C@@H](CC(C)C)C(N)=O [Peptide 24, K-(D-1-Nal)-(L-Nva)-wLL-NH2] (H-K[d1Nal][Nva][dW]LL-NH2)
Ghrelin receptor [1]; [9]
  Emax ± SEM: 71 ± 4 Δ %
Ghrelin receptor [1]; [10]
  x-fold (Emax): 1.1 x-fold
Ghrelin receptor [1]; [11]
  x-fold (EC50): 146.5 x-fold

## CC(C)C[C@H](NC(=O)[C@H](CC(C)C)NC(=O)[C@@H](Cc1ccc2ccccc2c1)NC(=O)[C@H](Cc1ccccc1)NC(=O)[C@@H](Cc1c[nH]c2ccccc12)NC(=O)[C@@H](N)CCCCN)C(N)=O [Peptide 13, KwF-(D-2-Nal)-LL-NH2]
Ghrelin receptor [1]; [12]
  Emax: 156%
Ghrelin receptor [1]; [13]
  EC50: 12.6 nM
Ghrelin receptor [1]; agonistic activity, relative to ghrelin
  percent of ghrelin efficacy: 96%
Ghrelin receptor [1]; [14]
  Emax ± SEM: 156 ± 22 Δ %
Ghrelin receptor [1]; [15]
  x-fold (Emax): 1 x-fold
Ghrelin receptor [1]; [16]
  x-fold (EC50): 9.00 x-fold

## wFwLL-NH2 ([dW]F[dW]LL-NH2; N-terminus assumed; SMILES CC(C)C[C@H](NC(=O)[C@H](CC(C)C)NC(=O)[C@@H](Cc1c[nH]c2ccccc12)NC(=O)[C@H](Cc1ccccc1)NC(=O)[C@H](N)Cc1c[nH]c2ccccc12)C(N)=O)
Ghrelin receptor [2]; reference 17, read-out: IC50 (receptor binding)
  IC50: 530 ± 230 nM

## CC(C)C[C@H](NC(=O)[C@H](CC(C)C)NC(=O)[C@@H](Cc1ccc(-c2ccccc2)cc1)NC(=O)[C@H](Cc1ccccc1)NC(=O)[C@@H](Cc1c[nH]c2ccccc12)NC(=O)[C@@H](N)CCCCN)C(N)=O [Peptide 14, KwF-(D-Bip)-LL-NH2]
Ghrelin receptor [1]
  activity at the ghrelin receptor (in words): no activity
